In PMC7412550 (Viruses, 2020):

Experiments:
HIV-1 NL4.3 wt = details: for SI (selectivity index): ratio between the CC50 and the EC50; for EC50: read-out: HIV-1 wt MT EC50, HIV-1 NL4.3 wt, MT4 cells, MTT, 5 days post infection, mean and SD of three experiments
in vitro = details: human
MT4 cells = details: read-out: MT4 CC50; non-infected MT4 cells, MTT
R448A RT RNase H [1] = biological target: T1, R448A RT RNase H (Human immunodeficiency virus type 1 group M subtype B, UniProt P04585, R1035A); parameters: method as in ref 26,27 = [26]; details: RNase H function; cited from earlier work
R557A RT RNase H [2] = biological target: T2, R557A RT RNase H (Human immunodeficiency virus type 1 group M subtype B, UniProt P04585, R1144A); parameters: method as in ref 26,27 = [26]; details: RNase H function; cited from earlier work
Q475A RT RNase H = Q475A RT RNase H (Human immunodeficiency virus type 1 group M subtype B, UniProt P04585, Q1062A); assay: HIV-1 DNA polymerase-independent RNase H activity, Q475A RT; details: RNase H function; p-value = 0.0008
R448A RT RNase H [3] = biological target: T1, R448A RT RNase H; assay: HIV-1 DNA polymerase-independent RNase H activity, R448A RT; details: RNase H function; p-value 0.5545
R557A RT RNase H [4] = biological target: T2, R557A RT RNase H; assay: HIV-1 DNA polymerase-independent RNase H activity, R557A RT; details: RNase H function; p-value 0.9682
VSV/HIV-1GFP = type: cell-based
[5] = biological target: HIV-1 RT-associated RDDP activity (wt RT) (Human immunodeficiency virus type 1 group M subtype B, UniProt P04585); assay: HIV-1 RNA-dependent DNA polymerase (RDDP) activity; type: biochemical
HIV-1 RT RNase H = details: Table S2; biologic data previously reported; cited from earlier work
HIV-1 IN = tested on: HIV-1 IN; parameters: method as in ref 30 = [30]; details: enzymatic assay; cited from earlier work
[6] = biological target: HIV-1 RT-associated RNase H (wt RT) (Human immunodeficiency virus type 1 group M subtype B, UniProt P04585); assay: HIV-1 DNA polymerase-independent RNase H activity, wt RT

Q: For `Cc1ccnc2c1NC(=O)c1cccnc1N2C1CC1` [NVP, nevirapine], which “SI (selectivity index)” value (HIV-1 NL4.3 wt) is on record?
A: >5.5

Q: And the CC50 (in vitro)?
A: > 3.7 µM

Q: With `CCOC(=O)C(=O)CC(=O)/C=C/c1cccn1Cc1ccccc1Cl` [RDS1759] as the compound, how does the “SI (selectivity index)” value (HIV-1 NL4.3 wt) read?
A: 4.7

Q: And the EC50 (HIV-1 NL4.3 wt)?
A: 8.2 ± 0.9 µM

Q: And the CC50 (MT4 cells)?
A: 39 ± 4.4 µM

Q: What about the “activity against R448A HIV-1 RT” value (R448A RT RNase H [1]) of the same compound?
A: fully active

Q: What about the “activity against R557A HIV-1 RT” value (R557A RT RNase H [2]) of the same compound?
A: fully active

Q: And the “potency of inhibition on Q475A RT compared to wt RT” value (Q475A RT RNase H)?
A: significantly lost its potency

Q: What about the “potency of inhibition on R448A RT compared to wt RT” value (R448A RT RNase H [3]) of the same compound?
A: not significantly affected

Q: What about the “potency of inhibition on R557A RT compared to wt RT” value (R557A RT RNase H [4]) of the same compound?
A: not significantly affected

Q: With `O=C(N/N=C/c1ccccc1O)c1cc(O)c(O)c(O)c1` [Compound 13, N’-(2-hydroxy-benzylidene)-3,4,5-trihydroxybenzoylhydrazone] as the compound, how does the “time after infection at which activity is lost (time-of-addition)” value (VSV/HIV-1GFP) read?
A: 6 h

Q: And the “inhibitory effect on RDDP activity at 25 μM” value ([5]; 25 μM)?
A: no inhibitory effect

Q: And the “fold less potent against RT polymerase activity than RNase H function” value ([5]; RDDP vs RNase H)?
A: > 20 fold

Q: And the IC50 ([5]; wt RT, inhibitor and substrate added before the enzyme (competition))?
A: 81 µM

Q: And the “SI (selectivity index)” value (HIV-1 NL4.3 wt)?
A: 6.1

Q: And the EC50 (HIV-1 NL4.3 wt)?
A: 10.1 ± 4.7 µM

Q: And the IC50 (HIV-1 RT RNase H)?
A: 2.32 ± 0.75 µM

Q: What about the “activity against HIV-1 IN” value (HIV-1 IN) of the same compound?
A: inactivity

Q: What about the CC50 (in vitro) of the same compound?
A: 61.5 ± 2.2 µM

Q: And the IC50 ([6]; RNase H IC50 against wt enzyme (site-directed mutagenesis study, Figure 4), determined in parallel with mutants)?
A: 6.9 µM

Q: And the IC50 ([6]; RT-associated RNase H activity IC50 (comparative inhibition, Figure 2B), inhibitor and substrate added before the enzyme (competition))?
A: 3.6 µM

Q: Which “SI (selectivity index)” value (HIV-1 NL4.3 wt) does the source give for `O=C1Nc2ccc(Cl)cc2[C@@](C#CC2CC2)(C(F)(F)F)O1` [EFV, efavirenz] here?
A: >6.25

Q: What about the CC50 (in vitro) of the same compound?
A: > 0.31 µM

Q: With `Cc1nnc(C(=O)NC(C)(C)c2nc(C(=O)NCc3ccc(F)cc3)c(O)c(=O)n2C)o1` [RAL, raltegravir] as the compound, how does the time-of-addition behaviour (VSV/HIV-1GFP) read?
A: retained its potency over time

Q: And the CC50 (in vitro)?
A: > 2.25 µM

Q: For `CC(C)c1ccc(O)c(=O)c(O)c1` [beta-thujaplicinol], which “activity against R448A HIV-1 RT” value (R448A RT RNase H [1]) is on record?
A: fully active

Q: And the “activity against R557A HIV-1 RT” value (R557A RT RNase H [2])?
A: fully active

Q: Which “SI (selectivity index)” value (HIV-1 NL4.3 wt) does the source give for `Cc1cn([C@H]2C[C@H](N=[N+]=[N-])[C@@H](CO)O2)c(=O)[nH]c1=O` [AZT, azidothymidine] here?
A: >500

Q: And the CC50 (in vitro)?
A: > 3.7 µM

Q: With `O=C(N/N=C/c1cc(O)c(O)cc1O)c1cc(O)c(O)c(O)c1` [Compound 21] as the compound, how does the time-of-addition behaviour (VSV/HIV-1GFP) read?
A: retained its potency over time

Q: What about the “SI (selectivity index)” value (HIV-1 NL4.3 wt) of the same compound?
A: 6.4

Q: And the IC50 (HIV-1 RT RNase H)?
A: 0.62 ± 0.1 µM

Q: And the “activity against HIV-1 IN” value (HIV-1 IN)?
A: inhibited

Q: And the CC50 (in vitro)?
A: 31.8 ± 0.4 µM
